From patent publication US9078894B2 (AB SCIENCE, priority 2011, dated 2015)
Where “and” joins values, the source holds several entries; their conditions need not be identical. Identical values can stand only once.

Assays:
[1] = tested on: asthmatic patients with severe persistent asthma; assay: Phase 2a 16-week double-blind placebo-controlled study in severe persistent asthma; type: in vivo, human; set-up: Oral corticosteroids absolute change (W 4 to W 16), Mean ± SD / Oral corticosteroids absolute change (W 4 to W 16), Median: unit not given here
Text: The trial consisted of three phases: during the first 4 weeks, the corticosteroid dose remained constant; during the following 8 weeks, oral corticosteroid doses were decreased each week according to a predefined schedule, until weaning or an asthma exacerbation occurred; the final 4 weeks were a stabilization period for observation. Asthma exacerbation was defined as a deterioration of asthma symptoms requiring an emergency visit, a hospitalization or an increase in oral corticosteroid treatment. In case an asthma exacerbation occurred, oral corticosteroid therapy was resumed at the level prior to this occurrence following the acute treatment phase. Patients underwent a visit every 2 weeks during the first 4 weeks, then a weekly visit for the following 12 weeks. A possible treatment extension was part of the study protocol in case of clinical benefit, based on the investigators assessment. In these extension phases the follow-up of patients took place every 4 weeks during the first 3 months and then every 12 weeks until the end of the study. The primary objective was to measure the reduction of oral corticosteroids doses after 16 weeks of treatment. Therefore, efficacy and safety measurements were assessed at enrolment of each patient in the study prior to the administration of the investigational compound and then at week 2, and weekly from weeks 4 through to 16. The secondary objectives were to monitor the change from baseline in symptomatic scores (asthma control questionnaire, ACQ), the FEV1 and rescue medication intake when necessary. Patients, 18 to 75 years of age with a diagnosis of asthma for ≧3 years and severe uncontrolled disease for ≧1 year, and followed up at the same centre for ≧1 year, were eligible for this study. […] Exclusion criteria included: (a) any other significant respiratory or cardiac disease; (b) worsening of asthma symptoms requiring treatment with additional oral corticosteroids within 4 weeks of screening; (c) any other infections; (d) a history of acute infection requiring hospitalization or treatment with antibiotics within 2 weeks of screening; (e) rare variants of severe asthma such as Churg-Strauss syndrome or allergic bronchopulmonary aspergillosis; […] A treatment wash-out period of 4 months at time of enrolment was required for prior use of omalizumab.

[2] = tested on: experimentally asthmatic cats; assay: Experimental feline asthma, randomized blinded placebo-controlled study; type: in vivo, cat
Text: Twelve experimentally asthmatic cats were enrolled in a randomized, blinded, placebo-controlled study. […] Exclusion criteria were evidence of cardiac insufficiency, evidence of gastric bleeding, major surgery within 2 weeks of treatment initiation, life expectancy less than 3 months, lactating or pregnant cats or cats intended for breeding, previous history of kidney disease or previous known episodes of proteinuria, administration of food listed on the “recall list” issued by FDA or vaccination within 4 weeks prior to enrollment, and any concurrent medical illness. […] Bronchoalveolar lavage fluid (BALF) eosinophil percentages and airway hyper-reactivity, determined by changes in ventilator mechanics in response to methacholine (MCh) challenge were evaluated at baseline, weeks 4, 8 and 12. Results of the MCh challenge were reported as the effective concentration of MCh that increased baseline airway resistance by 200% (EC200Raw) and the end-inspiratory pressure after a breath hold (plateau pressure, Pplat). Treatment was interrupted or discontinued if predetermined adverse events were noted. Cats naïve to Bermuda grass allergen (BGA) confirmed by intradermal skin testing (IDST) and with normal BALF underwent allergen sensitization. IDST was re-evaluated to confirm allergen sensitization. Next, allergen challenge of BGA as an aerosol in awake, spontaneously breathing cats was performed. Allergen solution (100 μg of BGA dissolved in PBS) was aerosolized into a clear chamber using an air compressor attached to a nebulizer. Seven challenges were administered over the next 2 weeks, at which time BALF was repeated to confirm development of eosinophilic airway inflammation. Bronchoalveolar lavage fluid was collected in a blind fashion at baseline and weeks 4, 8, and 12 of the study. Collection of BALF was obtained after Mch challenge and under the same anesthesia. A total nucleated cell count was performed on each BALF sample using a coulter counter. Cytological evaluation and differential cell counts were performed on samples prepared by cytocentrifugation. Differential cell counts (200 nucleated cells per slide) on modified Wright's stained slides were performed, and cell percentages were reported.

[3] = tested on: Balb/c male mice sensitized with ovalbumine; assay: Murine model of allergic airway inflammation (ovalbumine); type: in vivo, mouse; conditions: oral, twice daily, 25 and 100 mg/kg/day; sensitized and challenged animals
Method: Balb/c male mice aged 9 weeks were sensitized with ovalbumine (50 μg) adsorbed with Al(OH)3 diluted in physiological saline (0.9% NaCl) by intraperitoneal injection on day 1 and 7. Sensitization was followed by intranasal challenges with ovalbumine (10 μg) diluted in 0.9% NaCl every day from day 18 to day 21. Non sensitized control animals received intraperitoneal injections of vehicle alone followed by intranasal challenges with NaCl 0.9% alone at the same time than the sensitized animals. […] On day 22, airway hyper responsiveness (AHR) was measured by the enhanced pause (PenH) in the whole body plethysmograph. The bronchoconstrictive response was evaluated as the response to a concentration-dependent methacholine (MCh) aerosol exposure. Mice were first exposed to a saline aerosol then to an aerosol generated from increasing concentrations of methacholine (0.05, 0.1, 0.2, 0.3, and 0.4M). Infiltration of inflammatory cells was measured immediately after assessment of AHR to methacholine via collection of bronchoalveolar lavage (BAL) fluid by lavage of the whole lung with physiological saline containing 1.6 mM EDTA. Cells were counted in the BAL and cell types identified by morphological criteria after Hemacolor staining.

[4] = tested on: human cord blood mast cells; conditions: cited from earlier work
patients [5] = conditions: estimated exposure of about 57,300 patients, June 2003 through December 2006; cited from earlier work
patients [6] = conditions: 20 of 4127 patients; cited from earlier work
[7] = ITT population, 3.0 mg/kg/day (N = 12)
[8] = ITT population, 4.5 mg/kg/day (N = 11)
[9] = ITT population, 6.0 mg/kg/day (N = 10)
[10] = ITT population, all masitinib (N = 33)
[11] = subpopulation initially treated with >15 mg prednisone daily, 3.0 mg/kg/day (N = 9)
[12] = subpopulation initially treated with >15 mg prednisone daily, 4.5 mg/kg/day (N = 4)
[13] = subpopulation initially treated with >15 mg prednisone daily, 6.0 mg/kg/day (N = 6)
[14] = subpopulation initially treated with >15 mg prednisone daily, all masitinib (N = 19)

## Cc1ccc(NC(=O)c2ccc(CN3CCN(C)CC3)cc2)cc1Nc1nc(-c2cccnc2)cs1 [masitinib, 4-(4-methylpiperazin-1-ylmethyl)-N-[4-methyl-3-(4-pyridin-3ylthiazol-2-ylamino)phenyl]benzamide]
[1]; 3.0 mg/kg dose
  ACQ score change: 0.56 units
[1]; 4.5 mg/kg dose
  ACQ score change: 1.57 units
[1]; 6 mg/kg dose
  ACQ score change: 0.89 units
[1]; ITT analysis, all masitinib-treated patients, p<0.001
  improvement of ACQ score at W16: 0.99 unit
[1]; [7]
  Oral corticosteroids absolute change (W 4 to W 16), Mean ± SD: −10.7 ± 19.2
  Oral corticosteroids absolute change (W 4 to W 16), Median: −14.0
  Patients weaned at W 16, number (percent): 5 (41.7%)
[1]; [8]
  Oral corticosteroids absolute change (W 4 to W 16), Mean ± SD: 0.2 ± 26.8
  Oral corticosteroids absolute change (W 4 to W 16), Median: −7.5
  Patients weaned at W 16, number (percent): 2 (25.0%)
[1]; [9]
  Oral corticosteroids absolute change (W 4 to W 16), Mean ± SD: −12.2 ± 18.5
  Oral corticosteroids absolute change (W 4 to W 16), Median: −11.3
  Patients weaned at W 16, number (percent): 3 (37.5%)
[1]; [10]
  Oral corticosteroids absolute change (W 4 to W 16), Mean ± SD: −8.0 ± 21.3
  Oral corticosteroids absolute change (W 4 to W 16), Median: −12.3
  Patients weaned at W 16, number (percent): 10 (35.7%)
[1]; all masitinib-treated patients
  masitinib-related AE: diarrhea: 18.2%
  masitinib-related AE: fatigue: 12.1%
  masitinib-related AE: nausea: 30.3%
  masitinib-related AE: peripheral edema: 18.2%
  masitinib-related AE: pruritus: 12.1%
  masitinib-related AE: skin rash: 30.3%
  masitinib-related AE: vomiting: 12.1%
[1]; all patients treated with masitinib, regardless of dose
  patients who experienced at least one AE: 93.9%
[1]; in this trial
  change in lung function: no significant change in lung function
[1]; masitinib group, all doses merged
  asthma exacerbation rate in patients experiencing at least one exacerbation, decrease: 42.4%
[1]; masitinib-treated patients
  rate of asthma exacerbation compared to placebo: significantly reduced
[1]; patients receiving >15 mg equivalent prednisone per day at baseline, all masitinib-treated patients
  percent reduction in oral corticosteroid doses: 52±53%
[1]; patients receiving >15 mg equivalent prednisone per day at baseline, masitinib treatment groups
  patients weaned off oral corticosteroids at W16, number: six
[1]; [11]
  Oral corticosteroids absolute change (W 4 to W 16), Mean ± SD: −17 ± 9
  Oral corticosteroids absolute change (W 4 to W 16), Median: −20
  Oral corticosteroids percent change (W 4 to W 16), Mean ± SD: −68 ± 38%
  Oral corticosteroids percent change (W 4 to W 16), Median: −81%
  Patients weaned at W 16, number (percent): 4 (44.4%)
[1]; [12]
  Oral corticosteroids absolute change (W 4 to W 16), Mean ± SD: −7 ± 8
  Oral corticosteroids absolute change (W 4 to W 16), Median: −5
  Oral corticosteroids percent change (W 4 to W 16), Mean ± SD: −33 ± 42%
  Oral corticosteroids percent change (W 4 to W 16), Median: −19%
  Patients weaned at W 16, number (percent): 0 (0.0%)
[1]; [13]
  Oral corticosteroids absolute change (W 4 to W 16), Mean ± SD: −14 ± 22
  Oral corticosteroids absolute change (W 4 to W 16), Median: −16
  Oral corticosteroids percent change (W 4 to W 16), Mean ± SD: −40 ± 78%
  Oral corticosteroids percent change (W 4 to W 16), Median: −69%
  Patients weaned at W 16, number (percent): 2 (33.3%)
[1]; [14]
  Oral corticosteroids absolute change (W 4 to W 16), Mean ± SD: −14 ± 14
  Oral corticosteroids absolute change (W 4 to W 16), Median: −15
  Oral corticosteroids percent change (W 4 to W 16), Mean ± SD: −52 ± 53%
  Oral corticosteroids percent change (W 4 to W 16), Median: −65%
[2]; 50 mg/day, p=0.002 vs placebo
  proteinuria, cats affected: every cat
[2]; after 4 weeks of therapy, 50 mg orally once daily, p=0.023 vs placebo
  group mean±SD % BALF eosinophils: 7±9%
[2]; after 4 weeks of therapy, no significant increase in masitinib-treated cats (p=0.32)
  Pplat with MCh challenge: blunting of airflow limitation
[2]; at baseline or after 4 weeks of therapy, MCh challenge
  group mean±SD EC200Raw, difference between groups: no significant difference
[2]; at or after week 4
  permanent discontinuation due to proteinuria: four
  temporary drug interruption followed by dose reduction due to proteinuria: two
[2]; infrequent overall, no specific therapy required
  other side effects suspected of being associated with masitinib administration: vomiting, diarrhea, Heinz bodies, hypoalbuminemia, hypoglobulinemia, hypercholesterolemia and ALT increase
[2]; week 4
  masitinib-treated cats with % BALF eosinophils <17%: five of six
[2]; week 4, the five masitinib-treated cats below 17%
  % BALF eosinophils, values of individual cats: 1% (2×) and 2% and 3.5% and 15%
[2]; week 4 compared to baseline
  change in Pplat with MCh challenge versus saline aerosol, compared between treatment groups: significant (p=0.033) decrease
[3]
  Penh (airway hyper responsiveness): a decrease of Penh
  number of eosinophils in the bronchoalveolar lavage fluid: marked decrease
[4]
  FcεRI-mediated degranulation: inhibition of FcεRI-mediated degranulation

## omalizumab: an anti-immunoglobulin E antibody (anti-IgE) approved for severe allergic asthma
Patients [5]
  frequency of anaphylaxis attributed to omalizumab use: at least 0.2%
Patients [6]
  malignant neoplasms observed in omalizumab-treated patients: 0.5%
